From the Bradley open melting point set (2014)
“And” between values parts separate entries of the source, which are not always exact repeats. Equal entries are not always repeated.

melting point | Structure (SMILES)
-106 °C | CC(C)SC(C)C [Diisopropyl sulfide]
8 °C | COC(=O)CCCCC(=O)OC [Dimethyl adipate]
19.5 °C | COC(=O)CCC(=O)OC [Dimethyl succinate]
-98 °C | CSC [Dimethyl sulfide]
141 °C | COC(=O)c1ccc(C(=O)OC)cc1 [Dimethyl terephthalate]
-60.4 °C | CN(C)C=O [Dimethylformamide]
27 °C | c1ccc(Oc2ccccc2)cc1 [Diphenyl ether]
24 °C | CCCCCCCCCCCCO [Dodecan-1-ol]
150 °C | CCCCCCCCCCCCO[C@@H]1O[C@H](CO)[C@@H](O[C@H]2O[C@H](CO)[C@@H](O)[C@H](O)[C@H]2O)[C@H](O)[C@H]1O [Dodecyl 4-O-alpha-D-glucopyranosyl-beta-D-glucopyranoside]
185 °C | CN(C)CCC=C1c2ccccc2COc2ccccc21 [Doxepin]
87 °C | Clc1ccc(COC(Cn2ccnc2)c2ccc(Cl)cc2Cl)cc1 (stereo not given) [Ecostatin]
256 °C | CSc1ccc(C(=O)c2[nH]c(=O)[nH]c2C)cc1 [Enoximone]
92 °C | C=CCOc1ccc(CC(=O)O)cc1Cl [Epinal]
122 °C | C=C(CC)C(=O)c1ccc(OCC(=O)O)c(Cl)c1Cl [Ethacrynic acid]
-41 °C | SCCS [Ethane-1,2-dithiol]
-114 °C | CCO [Ethanol]
-22 °C | C=C(C#N)C(=O)OCC [Ethyl 2-cyanoacrylate]
117 °C | CCOC(=O)c1ccc(O)cc1 [Ethyl 4-hydroxybenzoate]
7 °C | CCOC(=O)/C=C/c1ccccc1 [Ethyl (2E)-3-phenylacrylate]
117 °C | CCOC(=O)/C(C#N)=C\c1ccc(-c2ccccc2)o1 [Ethyl (2Z)-2-cyano-3-(5-phenyl-2-furyl)acrylate]
121 °C | CCOC(=O)/C(C#N)=C\c1ccc(-c2ccccc2OC)o1 [Ethyl (2Z)-2-cyano-3-[5-(2-methoxyphenyl)-2-furyl]acrylate]

melting point | Structure (SMILES)
103 °C | CCOC(=O)/C(C#N)=N\Nc1ccccc1[N+](=O)[O-] [Ethyl (2Z)-cyano[(2-nitrophenyl)hydrazono]acetate]
-94.9 °C | CCc1ccccc1 [Ethylbenzene]
116 °C | O=C(c1ccccc1)c1ccc(C(F)(F)F)cc1 [FXFFR DVR]
186 °C | O=C(O)CCC(=O)c1ccc(-c2ccccc2)cc1 [Fenbufen]
116 °C | c1ccc2c(c1)Cc1ccccc1-2 [Fluorene]
206 °C | NS(=O)(=O)c1cc(C(=O)O)c(NCc2ccco2)cc1Cl [Furosemide]
302 °C | O=c1c(-c2ccc(O)cc2)coc2cc(O)cc(O)c12 [Genistein]
50 °C | N=C(N)N [Guanidine]
152 °C | O=C(CCCN1CCC(O)(c2ccc(Cl)cc2)CC1)c1ccc(F)cc1 [Haloperidol]
-35 °C | CCCCCC(C)=O [Heptan-2-one]
-91 °C | CCCCCCC [Heptane]
-9 °C | CCCCCCC(=O)O [Heptanoic acid]
18 °C | CCCCCCCCCCCCCCCC [Hexadecane]
-52 °C | CCCCCCO [Hexan-1-ol]
-3 °C | CCCCCC(=O)O [Hexanoic acid]
-61 °C | CCCCCCc1ccccc1 [Hexylbenzene]
143 °C | O=C1Cc2ccccc2C(=O)O1 [Homophthalic acid anhydride]
-87 °C and -86 °C | Br [Hydrogen bromide]
144 °C | NC(=O)NO [Hydroxyurea]
75 °C | CC(C)Cc1ccc(C(C)C(=O)O)cc1 (stereo not given) [Ibumetin]
36.7 °C | CCCCCCCCCCCCCCCCCCCC [Icosane]

melting point | Structure (SMILES)
293 °C | CC(C)Cn1cnc2c(N)nc3ccccc3c21 [Imiquimod]
61 °C | CC(C)c1ncc([N+](=O)[O-])n1C [Ipronidazole]
203 °C | O=C1Nc2ccccc2C1=O [Isatin]
171 °C | NNC(=O)c1ccncc1 [Isoniazid]
88.8 °C | O=Cc1cccc(C=O)c1 [Isophthalaldehyde]
-96 °C | CC(C)c1ccccc1 [Isopropylbenzene]
132 °C | CO[C@@H]1[C@@H](O[C@@H]2O[C@H](C)[C@@H](O[C@H]3C[C@@](C)(O)[C@@H](OC(=O)CC(C)C)[C@H](C)O3)[C@H](N(C)C)[C@H]2O)[C@@H](CC=O)C[C@@H](C)[C@@H](O)C=CC=CC[C@@H](C)OC(=O)C[C@H]1OC(C)=O [Josamycin]
94 °C | CC(C(=O)O)c1cccc(C(=O)c2ccccc2)c1 (stereo not given) [Ketoprofen]
280 °C | C[C@H](N)C(=O)N[C@@H](C)C(=O)O [L-Alanyl-L-alanine]
221 °C | N=C(N)NCCC[C@H](N)C(=O)O [L-Arginine]
169 °C | CC[C@H](C)[C@H](N)C(=O)O [L-Isoleucine]
256 °C | C[C@@H](O)[C@H](N)C(=O)O [L-Threonine]
308 °C | CC(C)[C@H](N)C(=O)O [L-Valine]
139 °C | C[C@@H]1O[C@@H](O)[C@@H](O)[C@H](O)[C@@H]1O [L-fucose]
277 °C | N[C@@H](Cc1ccc(O)c(O)c1)C(=O)O [Levodopa]
222 °C | CCOC(=O)O[C@]1(C(=O)OCCl)CC[C@H]2[C@@H]3CCC4=CC(=O)C=C[C@]4(C)[C@H]3[C@@H](O)C[C@@]21C [Loteprednol]
230 °C | Cc1cccc(Nc2ccccc2C(=O)O)c1C [Mefenamic acid]
98 °C | CC1(C)OC(=O)CC(=O)O1 [Meldrum's Acid]
43 °C | CC(C)[C@@H]1CC[C@@H](C)C[C@H]1O [Menthol]
-182 °C | C [Methane]
131 °C | COC(=O)c1ccc(O)cc1 [Methyl 4-hydroxybenzoate]

melting point | Structure (SMILES)
-95 °C | CCCC(=O)OC [Methyl butyrate]
-48 °C | C=C(C)C(=O)OC [Methyl methacrylate]
-88 °C | CCC(=O)OC [Methyl propionate]
147 °C | CCN(CC)CCNC(=O)c1cc(Cl)c(N)cc1OC [Metoclopramide] [listing 1 of 2 here]
147 °C | CCN(CC)CCNC(=O)c1cc(Cl)c(N)cc1OC [Metoclopramide] [listing 2 of 2 here]
256 °C | Cc1ccccc1N1C(=O)c2cc(S(N)(=O)=O)c(Cl)cc2NC1C (stereo not given) [Metolazone]
160 °C | Cc1ncc([N+](=O)[O-])n1CCO [Metronidazole]
114 °C | Oc1ccc(OCc2ccccc2)cc1 [Monobenzone]
172 °C | CC(=O)Nc1ccc(/C=C/c2ccc(NC(C)=O)cc2)cc1 [N,N'-[(E)-ethene-1,2-diyldibenzene-4,1-diyl]diacetamide]
253 °C | O=C(Nc1ccc(/C=C/c2ccc(NC(=O)c3ccccc3)cc2)cc1)c1ccccc1 [N,N'-[(E)-ethene-1,2-diyldibenzene-4,1-diyl]dibenzamide]
130 °C | Oc1ccccc1C=NCCN=Cc1ccccc1O [N,N'-bis(salicylidene)ethylenediamine]
256 °C | CC(=O)NC1CCCCC(NC(C)=O)CCCC1 (stereo not given) [N,N'-cyclodecane-1,6-diyldiacetamide]
142 °C | C=CC(=O)NCCNC(=O)C=C [N,N'-ethylenebisacrylamide]
-140 °C | CCN(C)C [N,N-Dimethylethanamine]
-61 °C | CN(C)C=O [N,N-Dimethylformamide]
10 °C | CC(C)N(C=O)C(C)C [N,N-diisopropylformamide]
-140 °C | CCN(C)C [N,N-dimethylethylamine]
-61 °C | CN(C)C=O [N,N-dimethylformamide]

Structure (SMILES) | melting point
C[C@H]1O[C@@H](O[C@H]2[C@@H](O)C[C@H](O[C@H]3[C@@H](O)C[C@H](O[C@H]4CC[C@@]5(C)[C@H](CC[C@@H]6[C@@H]5CC[C@]5(C)[C@@H](C7=CC(=O)OC7)CC[C@]65O)C4)O[C@@H]3C)O[C@@H]2C)C[C@H](O)[C@@H]1O [Digitoxin] | 256 °C
CCCCCCCCCCCC(=O)OOC(=O)CCCCCCCCCCC [Diundecylperoxyanhydride] | 56 °C
ClC1=C(Cl)C2(Cl)C3C4CC(C5OC45)C3C1(Cl)C2(Cl)Cl (stereo not given) [Endrin] | 210 °C
CN[C@@H](C)[C@H](O)c1ccccc1 [Ephedrine] | 34 °C
CC(=O)OO [Ethaneperoxoic acid] | 0.1 °C
C=CC(=O)OCC [Ethyl acrylate] | -71 °C
O=[N+]([O-])c1ccc(Oc2ccc(C(F)(F)F)cc2[N+](=O)[O-])cc1 [Fluorodifen] | 90 °C
CCC1(C2=CCCCCC2)C(=O)NC(=O)NC1=O [Heptabarbital] | 174 °C
ClC1=C(Cl)C2(Cl)C3C(Cl)C=CC3C1(Cl)C2(Cl)Cl (stereo not given) [Heptachlor] | 95 °C
O=C(O)C(F)(F)C(F)(F)C(F)(F)C(F)(F)C(F)(F)C(F)(F)C(F)(F)C(F)(F)F [Heptadecafluorononanoic acid] | 66.5 °C
ClC(Cl)(Cl)C(Cl)(Cl)Cl [Hexachloroethane] | 192 °C
O=P1(NCCCl)OCCCN1CCCl (stereo not given) [Ifosfamide] | 40 °C
CCI [Iodoethane] | -108 °C
CI [Iodomethane] | -64 °C
N[C@H](CO)Cc1ccccc1 [L-phenylalaninol] | 92 °C
ClC1C(Cl)C(Cl)C(Cl)C(Cl)C1Cl (stereo not given) [Lindane] | 112 °C
CNC(=O)O/N=C(\C)SC [Methyl (1E)-N-[(methylcarbamoyl)oxy]ethanimidothioate] | 79 °C
COS(C)(=O)=O [Methyl methanesulfonate] | 20 °C
N#CSCSC#N [Methylene bis(thiocyanate)] | 106 °C
CNN [Methylhydrazine] | -80 °C
O=P1(N(CCCl)CCCl)NCCCO1 (stereo not given) [N,N-Bis(2-chloroethyl)-1,3,2-oxazaphosphinan-2-amine 2-oxide] | 43 °C
CCN(CC)c1ccccc1 [N,N-Diethylaniline] | -38 °C
CN(C)c1ccc(N)cc1 [N,N-Dimethylbenzene-1,4-diamine] | 35 °C
CCN(CC)c1ccccc1 [N,N-diethylaniline] | -38 °C
